# US20250295668A1, “METHODS FOR INDUCING COLANIC ACID BIOSYNTHESIS” (priority 2024, published 2025)
# Several values for one entry are separate records, joined by “and”; a condition that tells them apart may be missing. Equal values may be shown once.
# Legend:
# cps operon = experiment: Disk diffusion assay for cps induction, SG20781 cpsB::lacZ reporter; assay type: cell-based, E. coli; details: SG20781, filter paper disks 10 or 100 μg, 24 hours at 37° C.
# Method: For antibiotic screening targeting cps expression, the SG20781 strain (MC4100 lon+cpsB10::lacZ Mu-immλ) was used. The bacteria were cultured overnight at 37° C. in Luria-Broth (LB) medium and evenly plated on X-gal (40 μg/mL) supplemented LB agar plates, and incubated overnight.
# E. coli strain SG20781 was used to assess antibiotic cps induction via disk diffusion as previously described [PMID: 14553918]. In brief, an overnight bacteria culture was spread onto LB agar containing 0.1 mg ml-1 5-bromo-4-chloro-3-indolyl-β-D-galactoside (X-gal). […] The soaked filter papers were placed onto the bacteria-seeding plates and incubated for 24 hours at 37° C.
# Certain β-lactam antibiotics trigger the overexpression of the cps operon in E. coli [PMID: 14553918]. To validate this finding, a disk diffusion assay was performed using SG20781, an E. coli strain that harbors a LacZ reporter for the cps operon transcriptional regulation. Using a colorimetric assay, an increased level of […] reacts with X-gal, resulting in an intensified blue coloration as a result of the transcriptional up-regulation of the cps operon.
# wildtype E. coli = experiment: Colanic acid measurement (fucose quantification) in wildtype E. coli culture medium; assay type: cell-based
# Method: For colanic acid quantification, E. coli Keio mutants and the parental strain BW25113 were cultured overnight at 37° C. in M9 minimum medium [PMID: 28436966]. Bacteria were then removed by centrifugation and filtered for colanic acid measurement.
# The desired bacterial strain was first inoculated and cultured in M9 minimum medium overnight at 37° C. to obtain the seeding culture. The OD 600 was measured, and the seeding bacteria were diluted to OD600=0.02 in M9 minimum medium for another 16 hours. After the incubation, bacterial cultures were collected in 50 mL tubes, spun down at 4,000 g at 4° C. for 30 min, filtered, and 25 mL of supernatant was collected per 50 ml conical tube. Ice-cold 100% ethanol (EtOH) was added to make a final 50% EtOH solution for precipitation, and the mixture was kept at 4° C. overnight. Once precipitation occurred, the liquid was carefully removed after centrifugation at 4,000 g at 4° C. for 50 min. The pellet was washed once with cold 80% EtOH and then air-dried in a hood. The pellet from every 50 mL culture was resuspended in 500 μL distilled H2O. The solution was sonicated for 60 minutes at 37° C., followed by centrifugation at 4000 g at 4° C. for 10 minutes. A 200 μL sample was mixed with 30 μL hydrochloric acid (320331-500 mL, Sigma-Aldrich) and boiled for 2 hours. Subsequently, 60 μL 5M NaOH and 150 μL NaHCO3/NaOH buffer were added to reach a pH of 6-8, calibrated by 1M HCl or NaOH solutions. The fucose quantification assay was then carried out using a K-FUCOSE kit (Megazyme) according to the manufacturer's protocol.
# Next, colanic acid in the bacteria culture medium was quantified via monosaccharide-fucose-from acid-hydrolyzed polysaccharide precipitates. […] Calculations were performed to determine the equivalent dosage by weight in a mammalian subject. Briefly, a typical mouse consumes 5-10 ml of water per day and weighs between 30-40 g. Using the 1.8 μg/mL concentration, a lower bound of 0.225 mg/kg (0.0018 mg/mL×5 ml[…]0.04 kg) and a higher bound of 0.6 mg/kg (0.0018 mg/mL×10 ml÷0.03 kg) were identified. […] In wild-type bacteria treated with cephaloridine and Alon E. coli mutants colanic acid production increased during the exponential growth phase and remained elevated in the stationary phase (FIG. 1D).
# C. elegans = C. elegans lifespan assay on antibiotic-treated E. coli; assay type: in vivo, Caenorhabditis elegans
# Method: For longitudinal assays, E. coli Keio mutants were initially cultivated in M9 minimum medium at 37° C. for 16 hours. Subsequently, bacteria at stationary phase were reinoculated in fresh M9 medium with a low dose of cephaloridine at 37° C. for another 16 hours. A 100 μL aliquot of the bacteria culture was seeded onto each 6-cm NGM plate and maintained at 20° C. Fresh bacteria plates were prepared every other day for transfer to alive worms. Caenorhabditis elegans var. Bristol N2 strain was obtained from the Caenorhabditis Genome Center. The strain was maintained on standard nematode growth medium (NGM) agar plates seeded with corresponding bacteria at 20° C. Age synchronization of C. elegans was achieved by isolating eggs as previously described [PMID: 4858229]. Lifespan assays were performed as previously described [PMID: 25554789]. In brief, age-synchronized C. elegans at the L1 stage were seeded onto designated bacteria lawns. Fresh bacteria-containing plates were made every other day for live C. elegans transfer. Once reaching adulthood as Day 0, worms were transferred to new bacteria plates. Death events were scored upon each transfer. Bagged worms and vulva protruding worms were censored throughout the analysis. Each assay contained 80-100 animals with 30-40 animals per 6 cm plate.
# [1] = Age-related metabolic dysfunction in mice, cephaloridine in drinking water; assay type: in vivo; details: oral 2 μg/mL
# Method: Methods: Co-housed 12-month-old […] mice were given MG1655 E. coli at 1×10^8 CFU/mL through distilled drinking water (100 mL) for 24 hours to maintain E. coli occupancy in the mouse gut microbiota. Subsequently, mice received 2 μg/mL cephaloridine through drinking water (100 mL) for 60 hours. […] This entire procedure was then repeated. Cephaloridine dosages were calculated as follows. Briefly, a typical mouse used in this study consumed 5-10 ml of water per day and weighed between 30-40 g. Using the 2 μg/mL concentration, a lower bound of 0.25 mg/kg (0.002 mg/mL×5 mL=0.04 kg) and a higher bound of 0.67 mg/kg (0.002 mg/mL×10 mL=0.03 kg) were identified.
# PBP1a = PBP1a (Escherichia coli, UniProt P02918); details: E. coli, literature; cited from earlier work
# Chain of PBP1a (P02918 whole entry): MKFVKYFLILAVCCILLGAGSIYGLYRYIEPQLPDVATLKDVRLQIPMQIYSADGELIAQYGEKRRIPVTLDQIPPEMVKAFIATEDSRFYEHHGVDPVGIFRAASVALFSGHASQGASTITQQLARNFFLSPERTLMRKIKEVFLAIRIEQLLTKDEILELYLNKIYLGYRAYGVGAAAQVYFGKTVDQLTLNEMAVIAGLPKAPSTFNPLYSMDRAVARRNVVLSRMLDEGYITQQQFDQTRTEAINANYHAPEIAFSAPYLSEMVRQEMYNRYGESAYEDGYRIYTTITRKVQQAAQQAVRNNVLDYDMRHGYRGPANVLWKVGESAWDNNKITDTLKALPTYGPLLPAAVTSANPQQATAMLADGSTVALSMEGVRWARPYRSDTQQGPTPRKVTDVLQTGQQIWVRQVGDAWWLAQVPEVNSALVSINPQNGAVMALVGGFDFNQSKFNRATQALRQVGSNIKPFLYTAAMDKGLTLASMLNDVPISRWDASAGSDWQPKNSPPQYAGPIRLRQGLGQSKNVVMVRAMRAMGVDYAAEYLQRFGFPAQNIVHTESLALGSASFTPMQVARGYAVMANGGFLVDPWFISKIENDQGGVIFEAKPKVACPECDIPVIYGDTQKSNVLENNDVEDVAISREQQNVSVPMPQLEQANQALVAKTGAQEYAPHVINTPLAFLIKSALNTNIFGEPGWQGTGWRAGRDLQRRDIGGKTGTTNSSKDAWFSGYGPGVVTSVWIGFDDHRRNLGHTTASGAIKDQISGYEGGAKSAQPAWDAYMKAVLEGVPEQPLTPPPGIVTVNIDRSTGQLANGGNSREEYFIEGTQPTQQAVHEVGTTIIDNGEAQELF
compound,measurement,setting,value
O=C(Cc1cccs1)N[C@@H]1C(=O)N2C(C(=O)[O-])=C(C[n+]3ccccc3)CS[C@H]12 [cephaloridine],cps induction (blue coloration),cps operon,promote various shades of blue coloration
same,colanic acid production vs untreated wildtype control,"wildtype E. coli; cephaloridine 1.8 μg/mL, 37° C.",6 fold
same,optimal concentration for inducing colanic acid biosynthesis,wildtype E. coli; range of doses below MIC,1.8 μg/mL and 4.3 μM
same,C. elegans lifespan extension vs vehicle,C. elegans; MG1655 E. coli treated with 1.8 μg/mL,13% and 13.3%
same,C. elegans lifespan,C. elegans; cephaloridine-treated rcsA deletion mutant E. coli,failed to extend lifespan
same,C. elegans lifespan,C. elegans; cephaloridine-treated rcsD deletion mutant E. coli,effectively promoted longevity
same,C. elegans lifespan extension vs vehicle,C. elegans; wildtype E. coli treated with 1.8 μg/mL,14%
same,increase in plasma insulin between 12 and 18 months of age vs controls,[1]; female mice,lower
same,age-related increase in LDL:HDL ratio,[1]; male mice,suppressed
same,plasma HDL,[1]; male mice,not affected
same,plasma LDL between 12 and 18 months of age,[1]; male mice,remain nearly unchanged
same,binding to PBP1a,PBP1a,primarily binds to PBP1a
